Earlier results on one compound are cited in US10695287B2, “AMPK agonist topical medication for the treatment of certain specific medical conditions, methods of use thereof and wound dressing employing the same” (CERSCI THERAPEUTICS, INC., priority 2015, dated 2020).

In this data set the test system is AMPK. To be noted: topical administration; animal model (rodents); literature (Price et al. 2013; Tillu et al. 2012).

For `Oc1ccc(C=Cc2cc(O)cc(O)c2)cc1` [resveratrol], the mitigation of pain entry is recorded as “has shown efficacy in mitigation of pain”.
